CN(C)Cc1c[nH]c2ccccc12
solubility (mole fraction)
Conditions	273.15 K	278.15 K	283.15 K	288.15 K	293.15 K	298.15 K	303.15 K	308.15 K	313.15 K
in 1,4-dioxane	–	–	–	0.0465	0.0511	0.0562	0.0623	0.0684	0.0746
in acetone	0.0231	0.026	0.0289	0.0327	0.0364	0.0402	0.0463	0.0523	0.0584
in acetonitrile	0.00447	0.00517	0.00621	0.00736	0.00858	0.00998	0.0116	0.0133	0.0151
in ethanol	0.0207	0.023	0.0254	0.0283	0.0317	0.0355	0.0399	0.0449	0.0508
in ethyl acetate	0.0165	0.0193	0.0219	0.0253	0.029	0.0327	0.0377	0.0428	0.0479
in isopropanol	0.013	0.0153	0.0178	0.0207	0.0235	0.0268	0.0305	0.0341	0.0377
in methanol	0.0274	0.0293	0.0315	0.0341	0.0371	0.0417	0.0474	0.0537	0.0615
in n-butanol	0.0305	0.0337	0.0369	0.0416	0.0464	0.0512	0.0565	0.0617	0.067
in n-octanol	0.0111	0.0132	0.0158	0.0187	0.0218	0.025	0.0284	0.0319	0.036
in n-propanol	0.0284	0.0315	0.0346	0.0381	0.0415	0.046	0.0515	0.0581	0.0629
in toluene	0.00345	0.00408	0.00456	0.00537	0.00647	0.00765	0.00905	0.0107	0.0126

— BigSolDB 2.1
